{"source": "patent US20240109836A1", "about": "“NON-HALL[…] ANALOGS FOR TREATMENT OF NEUROLOGICAL AND PSYCHIATRIC DISORDERS” (The Trustees of Columbia University in the City of New York, priority 2021, published 2024)", "key": {"[1]": {"biological_target": "5-HT2B (Homo sapiens, UniProt P41595)", "assay": "IP1 agonist functional assay", "type": "cell-based"}, "[2]": {"biological_target": "T1, PDE4D2 (Homo sapiens, UniProt Q08499)", "T1 construct": "Panlabs (SafetyScreen44 panel)", "T1 sequence (Q08499 303-809 limits assumed)": "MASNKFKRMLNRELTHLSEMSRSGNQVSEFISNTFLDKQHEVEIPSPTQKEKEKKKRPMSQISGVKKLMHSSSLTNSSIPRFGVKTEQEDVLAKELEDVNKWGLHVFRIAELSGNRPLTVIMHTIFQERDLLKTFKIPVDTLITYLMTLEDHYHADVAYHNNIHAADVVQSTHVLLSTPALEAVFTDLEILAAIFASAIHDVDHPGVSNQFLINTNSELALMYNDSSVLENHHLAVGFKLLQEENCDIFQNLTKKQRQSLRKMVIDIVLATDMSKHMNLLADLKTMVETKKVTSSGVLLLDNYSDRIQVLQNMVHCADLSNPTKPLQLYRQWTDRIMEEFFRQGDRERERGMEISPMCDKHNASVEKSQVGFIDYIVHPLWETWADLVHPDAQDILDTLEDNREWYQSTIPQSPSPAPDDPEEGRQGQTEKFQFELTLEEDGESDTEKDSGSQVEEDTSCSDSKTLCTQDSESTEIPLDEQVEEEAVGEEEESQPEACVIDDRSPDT", "assay": "SafetyScreen44 (Panlabs) panel", "type": "biochemical", "conditions": "10 μM", "experimental": "(§1) Other targets included with less than ≥50% stimulation at a concentration of 10 μM: Acetylcholinesterase, COX-1, COX-2, MAO-A, PDE3A, PDE4D2, Protein Tyrosine Kinase (LCK), Adenosine A2A, Adrenergic α1A, Adrenergic α2A, Adrenergic β1, Adrenergic β2, Androgen (Testosterone), Calcium Channel L-Type (Dihydropyridine), CB1, CB2, Cholecystokinin CCK1 (CCKA), Dopamine D1, Dopamine D2S, Endothelin ETA, GABAA (Flunitrazepam, Central), Glucocorticoid, Glutamate-NMDA (Agonism), Histamine H1, Histamine H2, Muscarinic M1, Muscarinic M2, Muscarinic M3, Nicotinic Acetylcholine α4β2, (Cytisine), DOP, KOP, MOP, Potassium Channel [KA], Potassium Channel hERG, Serotonin (5-Hydroxytryptamine) 5-HT1A, 5-HT1B, 5-HT3, Na-channel site 2, DAT, NET, SERT, Vasopressin V1A"}, "[3]": {"biological_target": "T2, Protein Tyrosine Kinase (LCK) (Homo sapiens, UniProt P06239)", "T2 construct": "Panlabs (SafetyScreen44 panel)", "assay": "SafetyScreen44 (Panlabs) panel", "type": "biochemical", "conditions": "10 μM", "experimental": "as §1"}, "[4]": {"biological_target": "T3, MAO-A (Homo sapiens, UniProt P21397)", "T3 construct": "Panlabs (SafetyScreen44 panel)", "T3 sequence (P21397 whole entry)": "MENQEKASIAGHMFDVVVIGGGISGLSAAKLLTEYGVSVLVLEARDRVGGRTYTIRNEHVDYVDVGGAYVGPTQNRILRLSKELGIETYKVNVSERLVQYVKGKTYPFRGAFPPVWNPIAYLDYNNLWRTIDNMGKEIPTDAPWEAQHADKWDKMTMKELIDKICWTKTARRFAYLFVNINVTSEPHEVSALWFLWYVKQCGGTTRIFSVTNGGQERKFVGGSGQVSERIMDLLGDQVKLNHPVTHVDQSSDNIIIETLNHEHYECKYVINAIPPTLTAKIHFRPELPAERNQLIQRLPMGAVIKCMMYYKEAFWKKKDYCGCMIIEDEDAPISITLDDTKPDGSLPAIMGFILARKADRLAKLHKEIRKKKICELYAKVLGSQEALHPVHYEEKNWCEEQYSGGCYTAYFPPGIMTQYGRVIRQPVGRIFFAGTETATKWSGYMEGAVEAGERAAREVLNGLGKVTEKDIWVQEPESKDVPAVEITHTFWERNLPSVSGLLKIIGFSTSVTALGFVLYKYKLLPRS", "assay": "SafetyScreen44 (Panlabs) panel", "type": "biochemical", "conditions": "10 μM", "experimental": "as §1"}, "[5]": {"biological_target": "T4, COX-1 (Homo sapiens, UniProt P23219)", "T4 construct": "Panlabs (SafetyScreen44 panel)", "assay": "SafetyScreen44 (Panlabs) panel", "type": "biochemical", "conditions": "10 μM", "experimental": "as §1"}, "[6]": {"biological_target": "T5, COX-2 (Homo sapiens, UniProt P35354)", "T5 construct": "Panlabs (SafetyScreen44 panel)", "assay": "SafetyScreen44 (Panlabs) panel", "type": "biochemical", "conditions": "10 μM", "experimental": "as §1"}, "[7]": {"biological_target": "T6, Acetylcholinesterase (Homo sapiens, UniProt P22303)", "T6 construct": "Panlabs (SafetyScreen44 panel)", "T6 sequence (P22303 32-614)": "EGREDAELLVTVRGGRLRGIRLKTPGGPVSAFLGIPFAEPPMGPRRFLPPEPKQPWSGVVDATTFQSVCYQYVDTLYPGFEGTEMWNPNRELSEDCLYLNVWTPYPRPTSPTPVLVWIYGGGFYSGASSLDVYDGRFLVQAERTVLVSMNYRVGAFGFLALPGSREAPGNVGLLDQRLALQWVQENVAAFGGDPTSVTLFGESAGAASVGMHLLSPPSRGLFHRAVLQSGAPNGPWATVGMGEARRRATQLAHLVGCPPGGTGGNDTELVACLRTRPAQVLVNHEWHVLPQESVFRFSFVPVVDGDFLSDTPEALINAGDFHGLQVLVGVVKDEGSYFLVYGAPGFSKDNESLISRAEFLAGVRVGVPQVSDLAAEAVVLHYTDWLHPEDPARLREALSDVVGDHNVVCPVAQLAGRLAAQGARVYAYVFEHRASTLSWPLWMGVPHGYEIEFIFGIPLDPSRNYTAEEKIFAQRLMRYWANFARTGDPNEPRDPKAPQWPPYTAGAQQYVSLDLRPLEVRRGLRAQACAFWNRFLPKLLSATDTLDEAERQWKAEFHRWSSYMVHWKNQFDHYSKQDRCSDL", "assay": "SafetyScreen44 (Panlabs) panel", "type": "biochemical", "conditions": "10 μM", "experimental": "as §1"}, "[8]": {"biological_target": "T7, PDE3A (Homo sapiens, UniProt Q14432)", "T7 construct": "Panlabs (SafetyScreen44 panel)", "T7 sequence (Q14432 whole entry)": "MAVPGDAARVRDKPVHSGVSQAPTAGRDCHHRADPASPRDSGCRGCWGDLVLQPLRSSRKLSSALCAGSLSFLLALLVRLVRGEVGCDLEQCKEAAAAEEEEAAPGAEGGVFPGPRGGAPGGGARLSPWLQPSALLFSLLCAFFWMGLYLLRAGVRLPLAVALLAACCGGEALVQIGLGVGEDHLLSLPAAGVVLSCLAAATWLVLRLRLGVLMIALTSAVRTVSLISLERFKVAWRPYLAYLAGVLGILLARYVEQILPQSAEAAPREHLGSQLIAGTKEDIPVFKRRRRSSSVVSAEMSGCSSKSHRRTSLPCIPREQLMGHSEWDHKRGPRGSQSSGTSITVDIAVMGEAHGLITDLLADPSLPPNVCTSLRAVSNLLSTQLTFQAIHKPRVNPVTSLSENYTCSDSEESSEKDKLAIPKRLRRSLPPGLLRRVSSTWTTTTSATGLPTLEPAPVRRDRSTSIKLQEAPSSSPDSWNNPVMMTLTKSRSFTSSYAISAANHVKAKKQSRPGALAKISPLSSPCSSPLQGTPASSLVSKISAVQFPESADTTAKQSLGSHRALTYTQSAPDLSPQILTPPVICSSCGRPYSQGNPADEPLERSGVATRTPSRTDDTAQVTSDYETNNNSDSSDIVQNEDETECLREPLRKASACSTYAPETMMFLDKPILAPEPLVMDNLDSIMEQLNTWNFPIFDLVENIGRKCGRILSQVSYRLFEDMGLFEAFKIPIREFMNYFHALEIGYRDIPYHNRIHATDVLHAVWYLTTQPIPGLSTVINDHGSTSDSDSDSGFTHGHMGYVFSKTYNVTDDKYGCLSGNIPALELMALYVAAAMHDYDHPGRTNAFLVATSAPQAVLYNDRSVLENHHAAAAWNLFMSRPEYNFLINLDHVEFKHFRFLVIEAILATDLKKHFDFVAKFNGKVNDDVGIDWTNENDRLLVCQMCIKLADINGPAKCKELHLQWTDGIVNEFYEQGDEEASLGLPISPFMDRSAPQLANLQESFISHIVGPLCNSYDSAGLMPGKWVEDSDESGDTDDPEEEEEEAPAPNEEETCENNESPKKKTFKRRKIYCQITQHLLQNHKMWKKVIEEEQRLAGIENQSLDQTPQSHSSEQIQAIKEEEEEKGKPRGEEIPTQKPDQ", "assay": "SafetyScreen44 (Panlabs) panel", "type": "biochemical", "conditions": "10 μM", "experimental": "as §1"}, "[9]": {"assay": "Head twitch response assay", "type": "in vivo, Mice (C57bl/6J)", "conditions": "mice, 1, 3, 10, and 30 mg/kg s.c., vs positive control DOI", "experimental": "FIG. 2. […] N=5 mice in each cohort. […] Drugs were administered s.c.\nMice (C57bl/6J, 8-15 weeks, 26-33 g) were weighed and moved to the testing room 30 minutes prior to experimentation. Mice were administered the experimental compound at a selected dose s.c. and then immediately moved to a new cage. Before beginning the test, mice were allowed to remain in this cage for a set amount of time ranging 0-10 min based on the compound. The head twitch assay was performed by a trained observer watching the mouse for a 10 min duration and recording the total number of head twitches observed.\nDOI was tested at the doses of 1, 3, 10 and 30 mg/kg (s.c., 5 mice per dose) and testing began immediately after administration of the compound. Ariadne (32), (29) and (38) were tested at the doses of 1, 3, 10, and 30 mg/kg (s.c., 5 mice per dose) and there was a 10 min interval between treatment and testing."}, "[10]": {"conditions": "at therapeutically effective doses in animals and humans; cited from earlier work"}, "[11]": {"assay": "Forced swim test", "type": "in vivo, Mice (C57bl/6J)", "conditions": "mice, 10 mg/kg s.c., 15 minutes post injection", "experimental": "FIG. 1. […] N=5 mice (saline), N=10 (imipramine as a positive control), N=9 mice (Ariadne cohort). Y-axis show the immobility time per each testing session. Drugs were administered subcutaneously (s.c.).\nMice (C57bl/6J, 8-15 weeks, 29-35 g) were weighed and moved to the testing room 30 minutes prior to experimentation. Mice were administered 0.85% saline (s.c., 5 mice), imipramine 15 mg/kg (i.p., 10 mice), or Ariadne (32) 10 mg/kg (s.c., 9 mice). 15 minutes post injection the mice were moved to a forced swim cylinder with water kept at 23.8-25.0 degrees celsius. Mice were allowed to swim for 6 minutes after which they were removed, dried, and returned to their home cage. The last four minutes of the forced swim video footage was analyzed with Noldus FST scoring software. The mouse's view of the FST cylinder was obstructed prior to starting the forced swim test."}, "[12]": {"biological_target": "T8, Serotonin (5-Hydroxytryptamine) 5-HT2A (Homo sapiens, UniProt P28223)", "T8 construct": "Panlabs (SafetyScreen44 panel)", "T8 sequence (P28223 whole entry)": "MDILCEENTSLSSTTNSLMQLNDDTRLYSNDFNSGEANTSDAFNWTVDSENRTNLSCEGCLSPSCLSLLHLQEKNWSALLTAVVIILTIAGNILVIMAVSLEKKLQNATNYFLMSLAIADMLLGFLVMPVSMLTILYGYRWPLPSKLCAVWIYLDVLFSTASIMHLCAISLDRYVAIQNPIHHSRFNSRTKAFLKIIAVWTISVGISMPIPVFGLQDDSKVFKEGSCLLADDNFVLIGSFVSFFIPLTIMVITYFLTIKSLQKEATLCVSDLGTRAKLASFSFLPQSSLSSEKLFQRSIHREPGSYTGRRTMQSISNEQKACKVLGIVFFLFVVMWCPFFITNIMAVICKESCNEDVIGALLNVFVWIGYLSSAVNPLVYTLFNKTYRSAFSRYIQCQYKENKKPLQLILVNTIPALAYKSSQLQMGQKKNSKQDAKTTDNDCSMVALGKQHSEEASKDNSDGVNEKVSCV", "assay": "SafetyScreen44 (Panlabs) panel, replacement of standard ligand", "type": "binding", "conditions": "hum"}, "[13]": {"biological_target": "5-HT2A (Homo sapiens, UniProt P28223)", "sequence (P28223 whole entry)": "as above", "assay": "IP1 agonist functional assay", "type": "cell-based", "conditions": "5HT2A versus 5HT2B, relative agonism potencies"}, "[14]": {"biological_target": "T9, Serotonin (5-Hydroxytryptamine) 5-HT2B (Homo sapiens, UniProt P41595)", "T9 construct": "Panlabs (SafetyScreen44 panel)", "assay": "SafetyScreen44 (Panlabs) panel, replacement of standard ligand", "type": "binding", "conditions": "hum"}, "[15]": {"biological_target": "T10, Nicotinic Acetylcholine α4β2, (Cytisine) (Homo sapiens, UniProt P17787+P43681)", "T10 construct": "Panlabs (SafetyScreen44 panel)", "assay": "SafetyScreen44 (Panlabs) panel", "type": "binding", "conditions": "10 μM", "experimental": "as §1"}, "[16]": {"system": "Androgen (Testosterone)", "assay": "SafetyScreen44 (Panlabs) panel", "type": "binding", "conditions": "10 μM", "experimental": "as §1"}, "[17]": {"biological_target": "T11, DAT (Homo sapiens, UniProt Q01959)", "T11 construct": "Panlabs (SafetyScreen44 panel)", "T11 sequence (Q01959 whole entry, species assumed)": "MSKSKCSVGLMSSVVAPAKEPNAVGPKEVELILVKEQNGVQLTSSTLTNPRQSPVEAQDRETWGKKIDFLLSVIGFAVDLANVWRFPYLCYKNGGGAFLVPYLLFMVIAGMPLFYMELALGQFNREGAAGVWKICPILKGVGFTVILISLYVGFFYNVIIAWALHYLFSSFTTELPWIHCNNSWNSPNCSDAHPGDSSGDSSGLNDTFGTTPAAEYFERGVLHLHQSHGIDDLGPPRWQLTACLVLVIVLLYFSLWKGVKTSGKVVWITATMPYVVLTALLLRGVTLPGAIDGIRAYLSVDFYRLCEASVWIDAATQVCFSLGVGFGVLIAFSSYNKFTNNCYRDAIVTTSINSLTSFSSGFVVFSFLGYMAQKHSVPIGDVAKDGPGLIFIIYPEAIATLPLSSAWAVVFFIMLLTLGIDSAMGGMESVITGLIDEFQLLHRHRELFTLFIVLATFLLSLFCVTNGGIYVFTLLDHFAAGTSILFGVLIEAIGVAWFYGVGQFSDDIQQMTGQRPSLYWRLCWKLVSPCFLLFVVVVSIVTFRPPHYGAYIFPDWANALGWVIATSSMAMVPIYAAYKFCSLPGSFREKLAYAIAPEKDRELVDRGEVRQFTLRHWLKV", "assay": "SafetyScreen44 (Panlabs) panel", "type": "binding", "conditions": "10 μM", "experimental": "as §1"}, "[18]": {"system": "GABAA (Flunitrazepam, Central)", "assay": "SafetyScreen44 (Panlabs) panel", "type": "binding", "conditions": "10 μM", "experimental": "as §1"}, "[19]": {"biological_target": "T12, Adrenergic β2 (Homo sapiens, UniProt P07550)", "T12 construct": "Panlabs (SafetyScreen44 panel)", "assay": "SafetyScreen44 (Panlabs) panel", "type": "binding", "conditions": "10 μM", "experimental": "as §1"}, "[20]": {"biological_target": "T13, Glucocorticoid (Homo sapiens, UniProt P04150)", "T13 construct": "Panlabs (SafetyScreen44 panel)", "assay": "SafetyScreen44 (Panlabs) panel", "type": "binding", "conditions": "10 μM", "experimental": "as §1"}, "[21]": {"biological_target": "T14, Muscarinic M2 (Homo sapiens, UniProt P08172)", "T14 construct": "Panlabs (SafetyScreen44 panel)", "assay": "SafetyScreen44 (Panlabs) panel", "type": "binding", "conditions": "10 μM", "experimental": "as §1"}, "[22]": {"biological_target": "T15, Adrenergic α2A (Homo sapiens, UniProt P08913)", "T15 construct": "Panlabs (SafetyScreen44 panel)", "assay": "SafetyScreen44 (Panlabs) panel", "type": "binding", "conditions": "10 μM", "experimental": "as §1"}, "[23]": {"biological_target": "T16, Cholecystokinin CCK1 (CCKA) (Homo sapiens, UniProt P32238)", "T16 construct": "Panlabs (SafetyScreen44 panel)", "T16 sequence (P32238 whole entry)": "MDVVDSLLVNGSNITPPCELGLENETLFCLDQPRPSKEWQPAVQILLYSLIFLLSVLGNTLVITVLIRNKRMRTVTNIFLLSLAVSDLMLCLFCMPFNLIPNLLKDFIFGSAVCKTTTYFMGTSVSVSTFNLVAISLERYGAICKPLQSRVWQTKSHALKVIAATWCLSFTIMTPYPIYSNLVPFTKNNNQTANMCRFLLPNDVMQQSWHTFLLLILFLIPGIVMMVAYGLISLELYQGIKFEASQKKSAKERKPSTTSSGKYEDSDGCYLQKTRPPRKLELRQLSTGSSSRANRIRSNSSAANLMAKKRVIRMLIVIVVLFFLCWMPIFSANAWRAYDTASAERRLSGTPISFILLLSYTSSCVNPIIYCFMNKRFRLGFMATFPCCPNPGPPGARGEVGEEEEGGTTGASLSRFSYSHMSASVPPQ", "assay": "SafetyScreen44 (Panlabs) panel", "type": "binding", "conditions": "10 μM", "experimental": "as §1"}, "[24]": {"system": "Calcium Channel L-Type (Dihydropyridine)", "assay": "SafetyScreen44 (Panlabs) panel", "type": "binding", "conditions": "10 μM", "experimental": "as §1"}}, "data": [{"smiles": "CCC(N)Cc1cc(OC)c(C)cc1OC", "note": "(stereo not drawn) [Ariadne (32), 1-(2,5-dimethoxy-4-methylphenyl)butan-2-amine]", "values": [{"measurement": "EC50", "setting": "[1]", "value": "> 32", "unit": "µM"}, {"measurement": "% stimulation", "setting": "[2]", "value": "< 50", "unit": "%"}, {"measurement": "% stimulation", "setting": "[3]", "value": "< 50", "unit": "%"}, {"measurement": "% stimulation", "setting": "[4]", "value": "< 50", "unit": "%"}, {"measurement": "% stimulation", "setting": "[5]", "value": "< 50", "unit": "%"}, {"measurement": "% stimulation", "setting": "[6]", "value": "< 50", "unit": "%"}, {"measurement": "% stimulation", "setting": "[7]", "value": "< 50", "unit": "%"}, {"measurement": "% stimulation", "setting": "[8]", "value": "< 50", "unit": "%"}, {"measurement": "psychedelic activity (number of head twitches in a 10-min period)", "setting": "[9]", "value": "lower psychedelic activity"}, {"measurement": "hallucinogenic effect", "setting": "[10]", "value": "no hallucinogenic effect"}, {"measurement": "antidepressant-like effects (immobility time)", "setting": "[11]", "value": "antidepressant-like effects"}, {"measurement": "inhibition at 10 µM", "setting": "[12]", "value": 72, "unit": "%"}, {"measurement": "Selectivity (EC50 2B ÷ EC50 2A)", "setting": "[13]", "value": 25, "unit": "x"}, {"measurement": "inhibition at 10 µM", "setting": "[14]", "value": 72, "unit": "%"}, {"measurement": "% stimulation", "setting": "[15]", "value": "< 50", "unit": "%"}, {"measurement": "% stimulation", "setting": "[16]", "value": "< 50", "unit": "%"}, {"measurement": "% stimulation", "setting": "[17]", "value": "< 50", "unit": "%"}, {"measurement": "% stimulation", "setting": "[18]", "value": "< 50", "unit": "%"}, {"measurement": "% stimulation", "setting": "[19]", "value": "< 50", "unit": "%"}, {"measurement": "% stimulation", "setting": "[20]", "value": "< 50", "unit": "%"}, {"measurement": "% stimulation", "setting": "[21]", "value": "< 50", "unit": "%"}, {"measurement": "% stimulation", "setting": "[22]", "value": "< 50", "unit": "%"}, {"measurement": "% stimulation", "setting": "[23]", "value": "< 50", "unit": "%"}, {"measurement": "% stimulation", "setting": "[24]", "value": "< 50", "unit": "%"}]}]}
